According to patent US20190388411A1, “NSAID ADMINISTRATION AND RELATED COMPOSITIONS, METHODS AND SYSTEMS” (Alfasigma S.p.A., priority 2013, published 2019):
Marks after values point to notes of the source that are not given here.

Assays:
malondialdehyde (MDA) = experiment: Tissue malondialdehyde (MDA) levels in jejunum and ileum, colorimetric assay (Example 17); type: in vivo, male Albino Sprague Dawley rats; conditions: rats, indomethacin […] BID or diclofenac 4 mg/kg BID, 14 days
Experimental: (§1) (indomethacin plus omeprazole ulcerated controls)
(§2) Groups 1 to 11 were treated as follows:
(§3) The whole intestinal tract was removed and intestinal tissue specimens processed for the evaluation of tissue myeloperoxidase (MPO) levels, an index of tissue neutrophils infiltration, of tissue malondialdehyde (MDA) levels, an index of lipid peroxidation and histological analysis of intestinal damage in jejunum and ileum.
MDA concentration in intestinal tissues was determined to obtain quantitative estimates of membrane lipid peroxidation as described by Fornai et al., NSAID-Induced Enteropathy: Are the Currently Available Selective COX-2 Inhibitors All the Same? J Pharmacol Exp Ther January 2014 348:86-95. For this purpose, intestinal tissue was excised, weighed, minced by forceps, homogenized in 2 ml of cold buffer consisting of Tris-HCl 20 mM, at pH 7.4, using a polytron homogenizer (QIAGEN, Milan, Italy), and centrifuged at 1,500 g for 10 min at 4° C. Aliquots of supernatants were then used for subsequent assay procedures. Mucosal MDA concentrations were estimated using a colorimetric assay kit (Cayman Chemical, Ann Arbor, Mich., U.S.A.). Results were expressed as nanomoles of MDA per milligram of intestinal tissue.

[1] = Blood hemoglobin levels in indomethacin- and diclofenac-induced enteropathy in rats (Example 17); type: in vivo, male Albino Sprague Dawley rats; conditions: 14 days; for Blood hemoglobin levels (in words): indomethacin […] BID, diclofenac 4 mg/kg BID, omeprazole 0.7 mg/kg/day, gastroresistant rifaximin 50 mg/kg BID, as named in the label; for Hemoglobin (g/dl): indomethacin […] BID or diclofenac 4 mg/kg BID
Experimental: (§4) A total of one hundred forty two (142) male Albino Sprague Dawley rats, 500 to 600 g body weight (40-week old) were assessed.
(§5) Group 1: ten animals treated with drug vehicle for 14 days (normal controls).
(§6) Group 6: twelve omeprazole-treated animals co-treated with gastroresistant rifaximin (50 mg/kg BID) for 14 days (omeprazole controls)
(§7) The enteropathy induced using diclofenac was carried out in the groups 8 to 11 as follows:
(§8) Group 8: fifteen animals treated with diclofenac 4 mg/kg BID (diclofenac ulcerated control
(§9) Group 9: fifteen animals treated with diclofenac 4 mg/kg BID and omeprazole 0.7 mg/kg once daily (diclofenac and omeprazole ulcerated control)
(§10) Group 10: twelve diclofenac-treated animals co-treated with gastroresistant rifaximin (50 mg/kg BID) for 14 days
(§11) Group 11: twelve diclofenac- and omeprazole-treated animals co-treated with gastroresistant rifaximin (50 mg/kg BID) for 14 days
as §2
(§12) Group 1 received 1% methylcellulose (0.3 ml/rat) and 1% methylcellulose (1 ml/rat) for 14 days.
(§13) Group 6 received gastroresistant rifaximin (50 mg/kg; 12 rats/group) suspended in 1% methylcellulose (1 ml/rat), twice daily, 1 hour before omeprazole 0.7 mg/kg once daily
(§14) Group 8 non-fasted rats were treated for 14 days with diclofenac 4 mg/kg BID by intragastric route, suspended in 1% methylcellulose and administered in a volume of 0.3 ml/rat.
(§15) Group 9 non-fasted rats were treated for 14 days with diclofenac 4 mg/kg BID, plus omeprazole 0.7 mg/kg once daily, by intragastric route, suspended in 1% methylcellulose and administered in a volume of 0.3 ml/rat.
(§16) Group 10 received gastroresistant rifaximin (50 mg/kg; 12 rats/group) suspended in 1% methylcellulose (1 ml/rat), twice daily, 1 hour before diclofenac administration
(§17) Group 11 received gastroresistant rifaximin (50 mg/kg; 12 rats/group) suspended in 1% methylcellulose (1 ml/rat), twice daily, 1 hour before diclofenac administration plus omeprazole 0.7 mg/kg once daily.
(§18) Twenty four hours after the last dose, the rats were euthanized and samples of blood were collected for the assessment of hemoglobin levels.
Haemoglobin analysis was performed on blood samples collected as reported above, using a Quantichrom Hemoglobin assay kit (Bioassay Systems, Hayward, Calif., USA) and expressed as g/dL.

myeloperoxidase (MPO) [2] = experiment: Tissue myeloperoxidase (MPO) levels in jejunum and ileum, ELISA (Example 17); type: in vivo, male Albino Sprague Dawley rats; conditions: rats, indomethacin […] BID or diclofenac 4 mg/kg BID, 14 days
Experimental: as §1, §2, §3
MPO was assessed as described by Fornai et al., NSAID-Induced Enteropathy: Are the Currently Available Selective COX-2 Inhibitors All the Same, J Pharmacol Exp Ther January 2014 348:86-95 and assumed as a quantitative index to estimate the degree of intestinal wall infiltration by polymorphonuclear cells.
Specimens of 30 mg intestinal tissues were homogenized on ice with a polytron homogenizer (QIAGEN, Milan, Italy) in 0.6 mL of ice-cold lysis buffer consisting of 200 mM NaCl, 5 mM EDTA, 10 mM Tris, 10% glycerine, 1 mM phenylmethylsulfonyl fluoride, 1 μg/ml leupeptin and 28 μg/ml aprotinin at pH 7.4. The homogenate was centrifuged 2 times at […] at 1.500 g. The supernatant was diluted 1:5 and used for determination of MPO concentration by means of enzyme-linked immunosorbent assay (ELISA). (Hycult Biotech, Uden, Netherlands). All samples were assayed as described in Example 15. The results were expressed as nanograms of MPO per milligram of intestinal tissue.

[3] = Mortality in indomethacin- and diclofenac-induced enteropathy in rats (Example 17); conditions: 14 days, indomethacin […] BID, diclofenac 4 mg/kg BID, omeprazole 0.7 mg/kg/day, gastroresistant rifaximin 50 mg/kg BID, as named in the label
Experimental: as §4, §5, §6, §7, §8, §9, §10, §11, §2, §12, §13, §14, §15, §16, §17

[4] = test system: indomethacin- and diclofenac-induced small intestinal damage; experiment: Microscopical analysis of small intestinal damage in jejunum and ileum (Example 17); type: in vivo, male Albino Sprague Dawley rats; conditions: rats, 14 days; for Ileum lesions type 1, 2 and 3 (in words) / Jejunal lesions type 1, 2 and 3 (in words): indomethacin […] BID, diclofenac 4 mg/kg BID, omeprazole 0.7 mg/kg/day, gastroresistant rifaximin 50 mg/kg BID, as named in the label; for Ileum Type 1 lesion (%) / Ileum Type 2 lesion (%) / Ileum Type 3 lesion (%) / Jejunum Type 1 lesion (%) / Jejunum Type 2 lesion (%) / Jejunum Type 3 lesion (%): indomethacin […] BID or diclofenac 4 mg/kg BID
Experimental: as §5, §6, §7, §8, §9, §10, §11, §2, §12, §13, §14, §15, §16, §17, §3
(§19) Upon removal, the whole intestinal tract was immediately injected with 10% formalin and left in the same fixative solution. After 30 min, it was opened along the anti-mesenteric border, cleaned of fecal content and fixed in 10% formalin for 24 h. Tissue samples were taken as described below in order to rule out any bias:
The full length of the small intestine was measured.
Sections of jejunum and ileum were embedded into paraffin blocks and cut into […] serial 7-8 μm sections. The slices were cut at two different points of the block: two on the surface and three at a deeper level. Each slice was placed on the slide for staining with haematoxylin and eosin.
The intestinal damage was classified as reported in Table 27 wherein reference is made with respect to the histological appearance of type 1, 2 and 3 lesions of jejunum and ileum to the illustration of FIG. 1
The statistical significance of data was evaluated by one way analysis of variance (ANOVA) followed by post hoc analysis by Student-Newman-Keuls test, and P values lower than 0.05 were considered significant. All statistical procedures were performed using GraphPad Prism 3.0 software (GraphPad Prism, San Diego, Calif., USA).

[5] = Blood hemoglobin levels in indomethacin-induced enteropathy in rats (Example 16); type: in vivo, male Albino Sprague Dawley rats
Experimental: as §18
Hemoglobin analysis was performed on rat blood samples collected as reported above, by means of Quantichrom Hemoglobin assay kit (Bioassay Systems, Hayward, Calif., USA) and expressed as g/dL.

[6] = test system: indomethacin - induced microscopic intestinal damage; experiment: Histological analysis of intestinal damage in jejunum and ileum (Example 16); type: in vivo, male Albino Sprague Dawley rats; conditions: rats; indomethacin […] BID 14 days, alone or with gastroresistant rifaximin 25 and 50 mg/kg BID or rifaximin polymorph alpha 50 mg/kg BID
Experimental: (§20) The whole intestinal tract was removed and processed for the evaluation of tissue myeloperoxidase (MPO) levels and histological analysis of intestinal damage in jejunum and ileum.
as §19, with “Pharmacol. Ther. 1993; 7:29-39. Upon” for “Upon”, “and the full length of small intestine was measured.” for “in order to rule out any bias:”
In particular the following tissue samples were taken • Ileum: 1 cm of tissue proximal to the ileo-cecal valve was discarded and two specimens of 1.5-2 cm of ileum were taken at this edge as well as 5 cm away from the first ileum sample • Proximal jejunum: two specimens of 1.5-2 cm were taken 5 cm away from both the proximal and distal end of the 37.5% of the small intestine total length. • Distal jejunum: two specimens of 1.5-2 cm were taken 5 cm away from both the proximal and distal end of 81% of small intestine's total length.
After fixation, tissues were embedded into paraffin blocks and were cut into consecutive serial 3-μm sections for staining with hematoxylin and eosin. Histological damage was assessed by two observers, blind to the treatment. Each section was given a score of lesion (Type 1 to 3) (TABLE 23).
Quantitative assessment of histological damage was expressed as percentage of the total length of lesions over the total length of the histological section.

myeloperoxidase (MPO) [7] = experiment: Tissue myeloperoxidase (MPO) levels in jejunum and ileum, ELISA (Example 16); type: in vivo, male Albino Sprague Dawley rats; conditions: rats; indomethacin […] BID 14 days, alone or with gastroresistant rifaximin 25 or 50 mg/kg BID or rifaximin polymorph alpha 50 mg/kg BID
Experimental: as §20
Specimens of intestinal tissues (30 mg) were homogenized on ice with a polytron homogenizer (QIAGEN, Milan, Italy) in 0.6 mL of ice-cold lysis buffer (200 mM NaCl, 5 mM EDTA, 10 mM Tris, 10% glycerine, 1 mM PMSF, 1 μg/ml leupeptin and 28 μg/ml aprotinin (pH 7.4). The homogenate was centrifuged 2 times at 4° C. for 15 min at 1.500 g. The supernatant was diluted 1:5 and used for determination of MPO concentration by means of enzyme-linked immunosorbent assay (ELISA) (Hycult Biotech, Uden, Netherlands). All samples were assayed within 2 day after collection. The results were expressed as nanograms of MPO per milligram of intestinal tissue.

SMILES | Ileum MDA (nmol/mg tissue) (malondialdehyde (MDA)) | Jejunum MDA (nmol/mg tissue) (malondialdehyde (MDA)) | Blood hemoglobin levels (in words) [1] | Hemoglobin (g/dl) [1] | Mortality (dead/treated animals) [3] | Ileum lesions type 1, 2 and 3 (in words) [4] | Jejunal lesions type 1, 2 and 3 (in words) [4] | Ileum Type 1 lesion (%) [4] | Ileum Type 2 lesion (%) [4] | Ileum Type 3 lesion (%) [4] | Jejunum Type 1 lesion (%) [4] | Jejunum Type 2 lesion (%) [4] | Jejunum Type 3 lesion (%) [4] | also measured
O=C(O)Cc1ccccc1Nc1c(Cl)cccc1Cl [Diclofenac, diclofenac] | 67.1* nmol/mg tissue | 69.44* nmol/mg tissue | significant decrease in blood haemoglobin concentration | 11.3* g/dl | 7/15 | occurrence of various degrees of type 1, 2 and 3 lesions in both jejunum and ileum | occurrence of various degrees of type 1, 2 and 3 lesions in both jejunum and ileum | 26* % | 8.8* % | 3* % | 24.6* % | 4.2* % | 0.8* % | Ileum MDA (nmol/mg tissue) (malondialdehyde (MDA); listed as diclofenac): 67.1 nmol/mg tissue; Jejunum MDA (nmol/mg tissue) (malondialdehyde (MDA); listed as diclofenac): 69.44 nmol/mg tissue; Ileum MPO (ng/mg tissue) (myeloperoxidase (MPO) [2]): 19.35* ng/mg tissue; Jejunum MPO (ng/mg tissue) (myeloperoxidase (MPO) [2]): 20.37* ng/mg tissue; Ileum MPO (ng/mg tissue) (myeloperoxidase (MPO) [2]; listed as diclofenac): 19.35 ng/mg tissue; Jejunum MPO (ng/mg tissue) (myeloperoxidase (MPO) [2]; listed as diclofenac): 20.37 ng/mg tissue; Mortality (%) ([3]; listed as diclofenac): 46.7%
COc1ccc2c(c1)c(CC(=O)O)c(C)n2C(=O)c1ccc(Cl)cc1 [Indomethacin, indomethacin] | 54.47* nmol/mg tissue | 66.15* nmol/mg tissue | significant decrease in blood haemoglobin concentration | 11.6* g/dl | 2/15 | occurrence of various degrees of type 1, 2 and 3 lesions in both jejunum and ileum | occurrence of various degrees of type 1, 2 and 3 lesions in both jejunum and ileum | 28.3* % | 11.8* % | 5.2* % | 36* % | 18* % | 4.6* % | Reduction in hemoglobin values ([5]; end of the treatment period (14 days), in respect to the control): about 20%; Blood hemoglobin concentration (in words) ([5]; indomethacin […] BID 14 days, alone or with gastroresistant rifaximin at both doses or rifaximin polymorph alpha 50 mg/kg BID): significant decrease in blood hemoglobin concentration; Ileum MDA (nmol/mg tissue) (malondialdehyde (MDA); listed as indomethacin): 54.47 nmol/mg tissue; Jejunum MDA (nmol/mg tissue) (malondialdehyde (MDA); listed as indomethacin): 66.15 nmol/mg tissue; Ileum type 1 lesions, microscopic assessment (in words) [6]: occurrence of type 1 and 2 lesions; Ileum type 2 lesions, microscopic assessment (in words) [6]: occurrence of type 1 and 2 lesions; Ileum type 3 lesions, microscopic assessment (in words) [6]: no significant differences were detected for type 3 lesions; Jejunum type 1 lesions, microscopic assessment (in words) [6]: occurrence of various degrees of type 1, 2 and 3 lesions; Jejunum type 2 lesions, microscopic assessment (in words) [6]: occurrence of various degrees of type 1, 2 and 3 lesions; Jejunum type 3 lesions, microscopic assessment (in words) [6]: occurrence of various degrees of type 1, 2 and 3 lesions; Ileum tissue MPO levels (in words) (myeloperoxidase (MPO) [7]): significant increase in tissue MPO levels; Jejunum tissue MPO levels (in words) (myeloperoxidase (MPO) [7]): significantly increased
